The subject of series [1] is various human cancer cell lines. Nature of the series: Cell viability by MTT cell proliferation assay. It is filed as cell-based. How it is done: Human […] cancer cells (Hela) and breast cancer cells (MD-MBA-231, MCF7) were seeded at 3000 cells/well in 96-well plates and maintained for 14-16 hours, then treated with JMF3086 or gemcitabine or both. After 72 hours, cells were washed with PBS then added medium containing MTT reagent (Sigma) at a final concentration of 0.5 mg/ml for 4 hours. Then, the medium was replaced with 200 μl of DMSO for 30 minutes, and using an ELISA reader (570 nm) to get the absorbance density values. The 50% of inhibition concentration (IC50) of death cells was calculated.
Effect of three 3,5,N-trihydroxy-alkanamide derivatives, JMF3086, (3R,5R)-7-{(1S,2S,6R,8S,8aR)-hexahydro-2,6-dimethyl-8-[2-dimethylbutyryloxy]naphthalenyl}-3,5-dihydroxy-N-hydroxyheptanamide (also referred to as JMF3171), and (3R,5R)-7-{[2-(4-fluoro-phenyl)-5isopropyl-3-phenyl-4-phenylcarbamoylpyrrol-1-yl]-3,5-dihydroxy-N-hydroxyheptanamide (also referred to as JMF3173) and the corresponding statins on the cell viability of various human cancer cell lines was determined by cell proliferation assay as described in Example 4. Specifically, cancer cells were treated with various concentrations of test compounds for 72 hours, and cell viability was measured by MTT assay. The half maximal inhibitory concentration (IC50) values for individual cell line were calculated.

Series [2] deals with HT29-Luciferase expressing cells. Nature of the series: Experimental colorectal cancer metastasis to the liver (HT29-Luciferase cells injected into spleen, IVIS imaging). It is filed as in vivo, NOD/SCID mice. The settings on record: single agent; JMF3086 oral 5 days/week, oxaliplatin or irinotecan i.p. once a week, two weeks; FIGS. 2B and 2C.
Description: Seven-week-old female NOD/SCID mice were obtained from the National Laboratory Animal Center. The mice were anesthetized by continuous flow of 2-3% isoflurane. To generate liver metastases derived from human colorectal cancer cells in mouse models, HT29-Luciferase expressing cells (1×10^6) were suspended in 100 μl PBS and injected into the spleen of mice. After one-week recovery, the mice were randomized into vehicle and treatment group. […] Mice were then given endotoxon-free luciferse substrate and photographed by IVIS imaging system (Xenogen) once a week. Tumors in spleen and liver were collected and weighed after sacrificed.
Series [3] concerns bindings of acetyl-H3K27, CBP, HDAC1 and HDAC3 to promoter. Nature of the series: Quantitative ChIP (qChIP) assay of promoter binding in HCT116 cells. It is filed as cell-based, human. The settings on record: FIG. 5D. The method, then:
FIGS. 5A to 5D show genome-wide analysis of target genes in 3,5,N-trihydroxy-alkanamide derivative-treated colorectal cancer cells. […] Ingenuity Pathways Analysis (IPA) analysis predicted that the genes associated with apoptosis were regulated by NR3C1. P=4.30E-37. […] The molecular network has a P-score (−log10 (p-value)) of 48. […] Data were analyzed by the Q-PCR and plotted as percent (%) of input DNA. *P<0.05, **P<0.01 versus basal, two-sided Student t test.
(§1) Colorectal cancer cells (HCT116) were treated with 30 μM JMF3086 for 24 hours, ChIP assays using control Rabbit IgG (sc-2027; Santa Cruz) or anti-H3K27-ac antibody (#4353; Cell Signaling) were performed as previously described (14).
To further investigate these differential effects of JMF3086, the bindings of acetyl-H3K27, CBP, HDAC1 and HDAC3 to promoter were examined by quantitative ChIP (qChIP) assays. JMF3086 reduced the bindings of acetyl-H3K27 and CBP to the promoters of TNF-α, CD166, COX-2, BCL2, CXCL1, CXCL2, EpCAM, CD44, Cyclin D1 and MCL1, but increased those of HDAC1 and HDAC3 to the promoters (FIG. 5D). In contrast, JMF3086 increased the bindings of acetyl-H3K27 and CBP to the promoters of TIMP3, BMP2 and p53 but decreased those of HDAC1 and HDAC3 to their promoters (FIG. 5D).

For series [4], the system named is angiogenesis (neovessel formation in matrigel plugs). Put plainly: Subcutaneous matrigel plug angiogenesis assay with conditioned medium of hypoxic HCT116 cells. It is filed as in vivo, nude mice. The settings on record: HCT116 treated with 30 μM JMF3086 for 20 hours, hypoxia 4 hours; plugs after 14 days; FIG. 2F. The method, then:
Angiogenesis is an essential step of tumor growth and metastasis (13). To determining the effect of JMF3086 on angiogenesis, HCT116 cells treated with 30 μM JMF3086 for 20 hours were exposed to hypoxia for 4 hours, then conditional medium was collected and subcutaneous matrigel plug assay was conducted by injecting of 75 μl conditional medium mixed with 425 μl matrigel and 50 U heparin/ml into nude mice (5 mice/group). Mice were sacrificed and dissected after 14 days. Matrigel plug retrieved from mice were photographed. Quantification of neovessel formation in matrigel plugs were estimated using Drabkin reagent kit 525.

For series [5], the system named is H3K27-Ac binding to gene promoters in HCT116. Put plainly: ChIP-on-chip assay of H3K27-Ac in HCT116 cells. Type of series: cell-based, human. How it is done: as §1
ChIP-on-chip assays were performed in the Microarray and Gene Expression Analysis Core Facility of the National Yang-Ming University VGH Genome Research Center in Taiwan using the SurePrint G3 Human Promoter 1×1M Kit (Agilent Technologies) after DNA was further purified through phenol/chloroform/isoamyl alcohol extraction and ethanol precipitation. Genes with two-fold down-regulation or up-regulation of H3K27-Ac in log-ratio after JMF 3086 treatment were regarded as significance.

In the next series the test system is AOM/DSS-induced CRC. Nature of the series: Animal model of AOM/DSS-induced CRC. Type of series: in vivo, male C57BL/6 mice. The settings on record: single agent; JMF3086 25 mg/kg oral 5 days/week or oxaliplatin 5 mg/kg i.p. once a week, two weeks; FIG. 1B. How it is done:
FIGS. 1A and 1B show the effect of a 3,5,N-trihydroxy-alkanamide derivative, JMF3086, combined with oxaliplatin on colitis-induced colorectal cancer in vivo. Mice were intraperitoneally injected with AOM (12.5 mg/kg) and maintained for 7 days, then subjected to 3 cycles of DSS treatment (1 cycle representing 5 days of 3.5% DSS followed by 14 days of H2O). […] Scale bars: 1 mm **P<0.01 versus vehicle.
AOM in conjunction with the additional DSS inflammatory stimulus results in tumor development that is restricted to the colon in mice (11, 12). This model is widely utilized to recapitulate human colorectal cancer because it results in inflammation and ulceration of the entire colon, similar to what is observed in patients (12). CRC was induced in male C57BL/6 mice via the intraperitoneal injection of AOM (12.5 mg/kg) while the mice were maintained with a regular diet and drinking water for 7 days and then subjecting to 3 cycles of DSS treatment, with each cycle consisting of the administration of 3.5% DSS for 5 days followed by a 14-day recovery period with regular water (FIG. 1A). […]

Another series deals with A549-Luc cells. Put plainly: Orthotopic lung cancer model (A549-Luc, IVIS imaging). The settings on record: single agent; JMF3086 oral 5 days/week or cisplatin i.p. once a week, two weeks; FIG. 3B. It is filed as in vivo, NOD/SCID mice. The method, then: In this Example, we use A549 cells [non-small cell lung cancer cell line with KRAS mutations (EGFR wild-type)] to establish the orthotopic lung cancer models. Seven-week-old male NOD/SCID mice were anesthetized by continuous flow of 2-3% isoflurane. A549-Luc cells (2×10^6) suspended in 40 μl of PBS were injected percutaneously into the right lung of the mice using 500 μl Gas-Tight syringes with 27G top winged infusion set. These mice were then given endotoxon-free luciferse substrate and photographed using IVIS-200 imaging system once a week. When lung tumor nodules were detected, the mice were oral administration of JMF3086 (5 days/week), intraperitoneally administered cisplatin (once a week) or a combination of JM3086 and cisplatin for additional two weeks (FIG. 3A).

For series [6], the system named is colorectal cancer cells (HCT116). Put plainly: Experimental colorectal cancer metastasis to the lung (HCT116 injected via tail vein). It is filed as in vivo, nude mice. The settings on record: JMF3086 100 mg/kg; FIG. 2E. The method, then:
Besides, to examine the anti-metastatic activity of JMF3086, colorectal cancer cells (HCT116) were intravenously injected into nude mice via the tail vein (FIG. 2D). JMF3086 (100 mg/kg) reduced lung tumor nodules by macroscopic observation (FIG. 2E), indicating its inhibition on lung metastasis.

Where [7] appears, read: HCT116, 30 μM, 24 hours, FIG. 5C.

The structures appear in SMILES notation. Where two headings read alike, the source gives them in different places.

For the compound `CC(C)c1c(C(=O)Nc2ccccc2)c(-c2ccccc2)c(-c2ccc(F)cc2)n1CC[C@@H](O)C[C@@H](O)CC(=O)NO` [JMF3173], in series [1] (CRC and various cancer cell lines, 72 hours, MTT, FIG. 4), the “cytotoxicity / cell viability” value is given as “cytotoxic”.

As to `CCC(C)C(=O)O[C@H]1C[C@@H](C)C=C2C=C[C@H](C)[C@H](CC[C@@H](O)C[C@@H](O)CC(=O)NO)[C@H]21` (stereo partly drawn) [JMF3086, (3R,5R)-7-{(1S,2S,6R,8S,8aR)-hexahydro-2,6-dimethyl-8-[2-methylbutyryloxy]naphthalenyl}-3,5-dihydroxy-N-hydroxyheptanamide], the “liver metastasis (luciferase activity, IVIS)” value (“liver metastasis” for short) in series [2] was “modestly inhibited”. For the same compound, in series [3], the “bindings of HDAC1 and HDAC3 to the promoters of TIMP3, BMP2 and p53” value is recorded as “decreased”; the “bindings of HDAC1 and HDAC3 to the promoters of TNF-α, CD166, COX-2, BCL2, CXCL1, CXCL2, EpCAM, CD44, Cyclin D1 and MCL1” value is reported as “increased”; the “bindings of acetyl-H3K27 and CBP to the promoters of TIMP3, BMP2 and p53” value is “increased”; the “bindings of acetyl-H3K27 and CBP to the promoters of TNF-α, CD166, COX-2, BCL2, CXCL1, CXCL2, EpCAM, CD44, Cyclin D1 and MCL1” value is recorded as “reduced”. For the same compound, the “angiogenesis induced by conditioned medium from HCT116 cells under hypoxia (matrigel plug)” value in series [4] is reported as “inhibited”. In addition, the “number of genes with altered binding of H3K27-acetylation” value in series [5] (HCT116, 30 μM JMF3086, 24 hours) is given as “more than 10,000 genes”. Besides, in series [5] (HCT116, 30 μM, 24 hours), the “mRNA expression of genes of inflammation and proliferation, stemness of cancer, and anti-apoptosis” value is listed as “reduced”; the “mRNA expression of tumor suppressors” value is recorded as “increased”. In series [5] (setting [7]), the “binding of H3K27-Ac to the gene promoters of inflammation and proliferation, stemness of cancer, and anti-apoptosis” value is reported as “inhibited”; the “binding of H3K27-Ac to the gene promoters of tumor suppressors” value is on record as “increased”. Further, the “number of tumors and sizes” value with AOM/DSS-induced CRC was “modestly reduced”. Further, the “lung cancer development (luciferase activity, IVIS)” value in the series with A549-Luc cells is on record as “ineffectively inhibited”. Also, in series [6], the “lung tumor nodules by macroscopic observation” value was “reduced”. For the same compound, the “cytotoxicity / cell viability” value in series [1] is on record as “cytotoxic”.

In the case of `CCc1c2c(nc3ccc(OC(=O)N4CCC(N5CCCCC5)CC4)cc13)-c1cc3c(c(=O)n1C2)COC(=O)[C@]3(O)CC` [irinotecan], the “liver metastasis” value in series [2] is “modestly inhibited”.

Turning to `CCC(C)(C)C(=O)O[C@H]1C[C@@H](C)C=C2C=C[C@H](C)[C@H](CC[C@@H](O)C[C@@H](O)CC(=O)NO)[C@H]21` [JMF3171, (3R,5R)-7-{(1S,2S,6R,8S,8aR)-hexahydro-2,6-dimethyl-8-[2-dimethylbutyryloxy]naphthalenyl}-3,5-dihydroxy-N-hydroxyheptanamide], the “cytotoxicity / cell viability” value in series [1] is “cytotoxic”.

Take `N.N.[Cl][Pt][Cl]` [cisplatin, reference compound]: in the series with A549-Luc cells, the “lung cancer development (luciferase activity, IVIS)” value is “ineffectively inhibited”.

Turning to `O=C1[O][Pt]2([NH][C@@H]3CCCC[C@H]3[NH]2)[O]C1=O` [oxaliplatin, reference compound], the “liver metastasis” value in series [2] is recorded as “modestly inhibited”. For the same compound, in the series with AOM/DSS-induced CRC, the “number of tumors and sizes” value is reported as “modestly reduced”.

(Values after patent publication US20170273921A1, “3,5,N-TRIHYDROXY-ALKANAMIDE OR 3,5,N-TRIHYDROXY-6-ALKENAMIDE DERIVATIVE ALONE OR IN COMBINATION WITH CHEMOTHERAPEUTIC AGENT FOR TREATING CANCER” (National Taiwan University, priority 2014, published 2017).)
